Data set [1] relates to BRCA2 Knockout DLD-1 cells. Nature of the data set: Inhibition of proliferation of BRCA2 Knockout DLD-1 cells (CellTiter-Glo). The format is cell-based. The conditions noted are these: Homo sapiens, about 144 hours. The protocol: When using RPMI1640 medium containing 10% FBS to culture BRCA2 Knockout DLD-1 cells to an appropriate cell density, the cells were collected and adjusted with complete medium to an appropriate cell concentration, the cell suspension was spread in a 96-well plate, with 90 μL per well, and the plate was placed in a 37° C., 5% CO2 incubator for overnight adherence. Compound solutions with different concentrations were prepared with DMSO and the culture medium, and a vehicle control was prepared. The compound solutions were added to the 96-well plate, with 10 μL per well, and the plate was placed in a 37° C., 5% CO2 incubator for continued culturing for about 144 hours. CellTiter-Glo solution was added and uniformly mixed by shaking. After incubation for 10-30 minutes in the dark, reading was carried out with Synergy H1 or Envision microplate reader.
The inhibition rate was calculated from the luminescence signal value, and the concentration and inhibition rate were subjected to non-linear regression curve fitting by using Graphpad Prism software to obtain an IC50 value. The inhibitory effects of the compounds of some examples of the present disclosure on the proliferation activity of BRCA2 Knockout DLD-1 cells were as shown in the following table: […]
Background: Cellular ATP, detected with luciferase, serves as a proxy for viable cell number.

A short description of data set [2]: Polymorphism study: slurrying of salt crystalline forms in solvents. In kind it is physicochemical. The conditions noted are these: 7 days.
A short description of data set [3]: Hygroscopicity determination. In kind it is physicochemical. The conditions noted are these: for hygroscopicity / weight gain after moisture absorption: RH 80%; for crystalline form transformation (XRPD pattern): after 1 cycle of moisture absorption and desorption, 0-95% relative humidity. The protocol: The crystalline forms of the salt of the compound were placed in saturated water vapor at different relative humidities to reach a dynamic equilibrium between the crystalline forms of the salt of the compound and the water vapor, and the weight gain percentage after moisture absorption after equilibrium was calculated.

Data set [4] can be described thus: Solubility experiment in different vehicles. In kind it is physicochemical. The conditions noted are these: 37° C., 2 hours.
A short description of data set [5]: PK study of crystalline forms of different salts in rats. In kind it is in vivo. The conditions noted are these: SD rats, gavage, 0.5% HPMC K4M.
Data set [6] is described as follows: Solid stability experiment. In kind it is physicochemical. How it is done: About 1 mg of crystalline forms of different salts were taken and investigated at a high temperature of 60° C., a high humidity of RH=92.5%, and a high temperature and high humidity of 50° C. and 75% RH for 7 and 14 days. The changes of related substances were calculated for the crystalline forms of the salts by a chromatographic peak area normalization method.

The test system of data set [7] is human colorectal cancer cell strain DLD-1 BRCA2−/−. Nature of the data set: In vivo pharmacodynamics in DLD-1 BRCA2−/− subcutaneous graft tumor model. Details: species or system BALB/c nude mice. The settings on record: DLD-1 BRCA2−/− nude mice, oral, once/day, 28 days. How it is done:
• a. […] The cells were passaged every three days, and after passage, the cells were placed in a CO2 incubator to continue the culture. This process was repeated until the cell number meets the needs of in vivo efficacy. • c. The cultured cells were collected, counted using a full-automatic cell counter, resuspended with PBS according to the counting results, and prepared into a cell suspension (at a density of 5×10^7/mL), which was then placed in an ice box for use. • a. Nude mouse was marked with a disposable universal ear tag for mice and rats before inoculation. • b. At the time of inoculation, the cell suspension was mixed well, 0.1-1 mL of cell suspension was taken with a 1 mL syringe, and after removing air bubbles, the syringe was placed on an ice bag until use. • c. The nude mouse was secured with the left hand. […] The nude mice were inoculated successively (inoculation with 0.1 mL of cell suspension per mouse). • a. […] According to the weight of tumor-bearing mice and the size of the tumor, the mice were grouped by random grouping. • c. […] Tumors were measured and weighed twice a week after starting administration of test drugs. • e. […] The data was processed with software such as Excel.

[8] abbreviates: FaSSGF (simulated gastric fluid, fasted).
The mark [9] stands for this setting: FaSSIF (simulated intestinal fluid, fasted).
[10] abbreviates: FeSSIF (simulated intestinal fluid, fed).

Consider `CCc1cc2ncc(CN3CC=C(c4ccc(C(=O)NCC(F)(F)F)nc4)CC3)cc2[nH]c1=O` [Example 20], for which the IC50 in data set [1] came to 1.4 nM.

As to `CCc1cc2ncc(CN3CCC(c4ccc(C(=O)NC)nc4)=C(F)C3)cc2[nH]c1=O` [Example 19], the IC50 in data set [1] came out at 1.5 nM.

For the compound `CCc1cc2ncc(CN3CC=C(c4ccc(C(=O)NC5(C#N)CC5)nc4)CC3)cc2[nH]c1=O` [Example 16], the IC50 in data set [1] is 2.7 nM.

For the compound “1′-((7-ethyl-6-carbonyl-5,6-dihydro-1,5-diazanaphth-3-yl)methyl)-N-methyl-1′,2′,3′,6′-tetrahydro-[3,4′-bipyridinyl]-6-carboxamide [p-toluenesulfonate dihydrate crystalline Form A]”, the Slurrying result in data set [2] (1,4-Dioxane, 40° C.) is “Still as hydrate crystalline”; in data set [2] (2-Butanone, 40° C.) it was “Still as hydrate crystalline”; in data set [2] (2-Methyltetrahydrofuran, 40° C.), “Still as hydrate crystalline”; in data set [2] (Acetone, 40° C.) it was “p-Toluenesulfonate crystalline”; in data set [2] (Acetonitrile, 40° C.), “p-Toluenesulfonate crystalline”; in data set [2] (Dichloromethane, 40° C.), “p-Toluenesulfonate crystalline”. In addition, the Slurrying result in data set [2] (Ethanol, 40° C.) is listed as “p-Toluenesulfonate crystalline”; in data set [2] (Ethyl acetate, 40° C.), “Still as hydrate crystalline”; in data set [2] (Ethyl formate, 40° C.), “p-Toluenesulfonate crystalline”; in data set [2] (Isopropanol, 40° C.) it was “Still as hydrate crystalline”; in data set [2] (Methyl tert-butyl ether, 40° C.) it was “Still as hydrate crystalline”; in data set [2] (Tetrahydrofuran, 40° C.), “Still as hydrate crystalline”. Also, the Slurrying result in data set [2] (Toluene, 40° C.) was “Still as hydrate crystalline”; in data set [2] (Trichloromethane, 40° C.) it was “p-Toluenesulfonate crystalline”; in data set [2] (methanol, 40° C.), “p-Toluenesulfonate crystalline”. The hygroscopicity result in data set [3] is listed as “weak hygroscopicity”. Besides, the “weight gain after moisture absorption” value in data set [3] is recorded as 1.906%. Moreover, in data set [3], the “crystalline form transformation (XRPD pattern)” value is listed as “no crystalline form transformation occurred”. Also, the “solubility” value in data set [4] (setting [8]) was above 437 µg/mL; in data set [4] (setting [9]) it was 147 µg/mL; in data set [4] (setting [10]), above 340 µg/mL; in data set [4] (Water), 308 µg/mL. In addition, the “AUC0-t” value in data set [5] (5 mpk) is 145.036 µg·h/mL; in data set [5] (20 mpk), 558.44 µg·h/mL. The “AUC0-∞” value in data set [5] (5 mpk) came out at 146.622 µg·h/mL; in data set [5] (20 mpk) it was 587.652 µg·h/mL. In addition, the “Cmax” value was determined as 17433 ng/mL in data set [5] (5 mpk) and 53400 ng/mL in data set [5] (20 mpk). The “t1/2” value was 3.8 h in data set [5] (5 mpk) and 5.7 h in data set [5] (20 mpk). Further, the F % in data set [5] (5 mpk, 5 mg/kg) turned out to be 92%; in data set [5] (20 mpk), 93%. Further, the “MRT0-∞” value in data set [5] (5 mpk, 5 mg/kg) is given as 5.4 h; in data set [5] (20 mpk), 7.5 h. In addition, the “tmax” value in data set [5] (5 mpk, 5 mg/kg) is on record as 1.0 h; in data set [5] (20 mpk), 4.0 h. Also, the “Stability result (total impurity increase %)” value is below 0.03% in data set [6] (50° C., 75% RH, 7 days); below 0.03% in data set [6] (50° C., 75% RH, 14 days); below 0.03% in data set [6] (60° C., 7 days); below 0.03% in data set [6] (60° C., 14 days); 0.08% in data set [6] (92.5% RH, 7 days); below 0.03% in data set [6] (92.5% RH, 14 days).

Regarding “1′-((7-ethyl-6-carbonyl-5,6-dihydro-1,5-diazanaphth-3-yl)methyl)-N-methyl-1′,2′,3′,6′-tetrahydro-[3,4′-bipyridinyl]-6-carboxamide [sulfate crystalline Form A]”, the Slurrying result in data set [2] (1,4-Dioxane, 50° C.) is reported as “Crystalline Form A”; in data set [2] (2-Me—THF, 50° C.) it was “Crystalline Form A”; in data set [2] (ACN, 50° C.), “Crystalline Form A”; in data set [2] (Acetone, 50° C.), “Crystalline Form A”; in data set [2] (EA, 50° C.) it was “Crystalline Form A”; in data set [2] (EtOH, 50° C.) it was “Crystalline Form A”. In addition, the Slurrying result is “Crystalline Form A” in data set [2] (MeOH, 50° C.); “Crystalline Form A” in data set [2] (THF, 50° C.); “Crystalline Form A” in data set [2] (Toluene, 50° C.). Further, the hygroscopicity entry in data set [3] is “weak hygroscopicity”. Further, the “weight gain after moisture absorption” value in data set [3] stood at 1.785%. The “crystalline form transformation (XRPD pattern)” value in data set [3] is listed as “no crystalline form transformation occurred”. Further, the “solubility” value was above 466 µg/mL in data set [4] (setting [8]), 133 µg/mL in data set [4] (setting [9]), above 347 µg/mL in data set [4] (setting [10]) and 696 µg/mL in data set [4] (Water). Further, in data set [5] (5 mpk, 5 mg/kg), the “AUC0-t” value came out at 118.078 µg·h/mL. In addition, the “AUC0-∞” value in data set [5] (5 mpk, 5 mg/kg) came to 119.241 µg·h/mL. In addition, the “Cmax” value in data set [5] (5 mpk, 5 mg/kg) was 14467 ng/mL. In data set [5] (5 mpk, 5 mg/kg), the F % is reported as 75%. The “MRT0-∞” value in data set [5] (5 mpk, 5 mg/kg) came to 5.3 h. Further, in data set [5] (5 mpk, 5 mg/kg), the “t1/2” value was 3.7 h. In addition, in data set [5] (5 mpk, 5 mg/kg), the “tmax” value was 2.0 h. Moreover, the “Stability result (total impurity increase %)” value in data set [6] (50° C., 75% RH, 7 days) is listed as 0.12%; in data set [6] (50° C., 75% RH, 14 days), 0.56%; in data set [6] (60° C., 7 days) it was 0.76%; in data set [6] (60° C., 14 days) it was 0.66%; in data set [6] (92.5% RH, 7 days) it was 0.17%; in data set [6] (92.5% RH, 14 days), 0.06%.

`CCc1cc2ncc(CN3CC=C(c4ccc(C(=O)NOC)nc4)CC3)cc2[nH]c1=O` [Example 3]: in data set [1], the IC50 was determined as 3.2 nM.

Turning to `CNC(=O)c1ccc(C2=CCN(Cc3cnc4cc(C(F)(F)F)c(=O)[nH]c4c3)CC2)cn1` [Example 21], the IC50 in data set [1] amounted to 5.1 nM.

`CCc1cc2ncc(CN3CC=C(c4ccc(C(=O)NCC#N)nc4)CC3)cc2[nH]c1=O` [Example 15]: the IC50 in data set [1] was determined as 2.4 nM.

For the compound `CCc1cc2ncc(CN3CC=C(c4ccc(C(=O)NC)nc4Cl)CC3)cc2[nH]c1=O` [Example 13], the IC50 in data set [1] came out at 1 nM.

Turning to `CCc1cc2ncc(CN3CC=C(c4ccc(C(=O)NC5CC5)nc4)CC3)cc2[nH]c1=O` [Example 2], the animal weight result in data set [7] is given as “without significant reduction of the animal weight”.

By IC50 is commonly meant the point on the concentration scale where inhibition reaches its midpoint. By solubility is commonly meant the dissolved amount per volume that the medium holds. A high value points to a readily soluble substance. The term Cmax denotes the peak of the concentration-time curve.

These data come from patent publication US20260151378A1, “SALT AND CRYSTAL FORM OF HETEROCYCLIC DERIVATIVE INHIBITOR, AND PREPARATION METHOD THEREFOR AND USE THEREOF” (SHANGHAI HANSOH BIOMEDICAL CO., LTD., priority 2022, published 2026).
